{"source": "patent US9850278B2", "about": "“Synthetic anti-inflammatory peptides and use thereof” (CARMEL-HAIFA UNIVERSITY ECONOMIC CORP., priority 2013, dated 2017)", "key": {"[1]": {"tested_on": "bovine mammary gland epithelial lined cells (BMEC)", "settings": "reported by Komine et al.; BMEC named for the bovine peptides; cited from earlier work"}, "[2]": {"tested_on": "IL-6", "assay": "IL-6 secretion by U937-derived human macrophages, supernatant ELISA", "format": "cell-based", "settings": "for IL-6 secretion, effect of peptide (Example 2, FIG. 4C): peptide 1-1000 μM 24 hrs, then LPS 100 ng/ml 24 hours, FKE effect at low concentrations (1-10 μM), others compared with FKE", "protocol": "(§1) U937 monocytic cells were cultured in 1 ml culture media (RPMI 1640, Biological industries, Beit Haemek), supplemented with 10% Fetal Calf Serum (FCS), 1% pen strep (PS) and 0.04% β-mercaptoethanol) and seeded in 24 well plates (250,000 cells/well). The monocytes underwent differentiation to macrophages with PMA (50 ng/ml) for 48 Hours in a humidified atmosphere (7.5% CO2 at 37° C.). Then the cells were washed using preheated (37° C.) culture medium and synthetic peptides (FKE, SEQ ID NO: 1, or FKD, SEQ ID NO: 3, 0.1-1000 μM) were added to the cells for 24-48 hours. After 24 hours, untreated or peptide-treated cells were activated with lipopolysaccharide (LPS-stimulated, 100 ng/ml for 24 hours). After the indicated incubations, cell free supernatants were collected and their content of IL-10, TGF-β and IL-6 was determined by standard ELISA.\n(§2) The results are presented in FIGS. 1-3 and summarized in Table 1 below (effect considered significant if ±30% of control):\n(§3) U937 monocytic cells were cultured and underwent differentiation to macrophages as described above in Example 1. The cells were then incubated for 24 hrs in the presence of synthetic peptides, at 1-1000 μM: FKE (SEQ ID NO: 1), FKECHLA (SEQ ID NO: 21), FKECH (SEQ ID NO: 4), EKF or YKE (SEQ ID NO: 2). Control cells were left untreated. After 24 hours, untreated or peptide-treated cells were activated with lipopolysaccharide (LPS, 100 ng/ml for 24 hours). Following activation with LPS, cell free supernatants were collected and their content of IL-10, TGF-β, IL-6 and TNF-α was determined by standard ELISA."}, "[3]": {"tested_on": "IL-10", "assay": "IL-10 secretion by U937-derived human macrophages, supernatant ELISA", "format": "cell-based", "settings": "for IL-10 secretion, effect of peptide (Example 2, FIG. 4A): peptide 1-1000 μM 24 hrs, then LPS 100 ng/ml 24 hours, FKE effect at low concentrations (1-10 μM), others compared with FKE; for IL-10 secretion, effect of peptide: significant if ±30% of control", "protocol": "as §1, §2, §3"}, "[4]": {"tested_on": "TNF-α", "assay": "TNF-α secretion by LPS-activated U937-derived human macrophages, supernatant ELISA", "format": "cell-based", "settings": "peptide 1-1000 μM 24 hrs, then LPS 100 ng/ml 24 hours; FKE effect at low concentrations (1-10 μM); others compared with FKE", "protocol": "as §3"}, "[5]": {"tested_on": "TGF-β", "assay": "TGF-β secretion by U937-derived human macrophages, supernatant ELISA", "format": "cell-based", "settings": "for TGF-β secretion, effect of peptide (Example 2, FIG. 4B): peptide 1-1000 μM 24 hrs, then LPS 100 ng/ml 24 hours, FKE effect at low concentrations (1-10 μM), others compared with FKE", "protocol": "as §1, §2, §3"}, "[6]": {"settings": "LPS-stimulated macrophages (peptide 24 hrs, then LPS 100 ng/ml 24 hrs)"}, "[7]": {"settings": "Non-stimulated, 24 hrs, peptide at 1000 μM"}, "[8]": {"settings": "Non-stimulated, 48 hrs, peptide 0.1-1000 μM"}, "[9]": {"settings": "peptide at low concentrations (1-10 μM)"}}, "note": "Entries after “also recorded” stand apart in the source; their conditions may differ.", "data": [{"substance": "FKDCHLA [positions 243-249 of human lactoferrin, Komine et al]", "values": [{"measurement": "induction of pro-inflammatory cytokines and chemokines (TNF-α, IL-6, IL-8 and MCP-1)", "setting": "[1]", "result": "induction"}]}, {"substance": "FKECH", "values": [{"measurement": "IL-6 secretion, effect of peptide (Example 2, FIG. 4C)", "setting": "[2]", "result": "less active than FKE"}, {"measurement": "IL-10 secretion, effect of peptide (Example 2, FIG. 4A)", "setting": "[3]", "result": "less active than FKE"}, {"measurement": "TNF-α secretion, effect of peptide (Example 2, FIG. 4D)", "setting": "[4]", "result": "pronounced activity in inhibiting"}, {"measurement": "TGF-β secretion, effect of peptide (Example 2, FIG. 4B)", "setting": "[5]", "result": "less active than FKE"}]}, {"substance": "FKECHLA [known bovine lactoferrin-derived synthetic peptide, excluded from Formula I]", "values": [{"measurement": "IL-6 secretion, effect of peptide (Example 2, FIG. 4C)", "setting": "[2]", "result": "reproduced the effects"}, {"measurement": "induction of pro-inflammatory cytokines and chemokines (TNF-α, IL-6, IL-8 and MCP-1)", "setting": "[1]", "result": "inactive"}, {"measurement": "TNF-α secretion, effect of peptide (Example 2, FIG. 4D)", "setting": "[4]", "result": "reproduced the effects"}]}, {"substance": "GQKDLLFKDSAI [positions 295-307 of human lactoferrin, Komine et al]", "values": [{"measurement": "induction of pro-inflammatory cytokines and chemokines (TNF-α, IL-6, IL-8 and MCP-1)", "setting": "[1]", "result": "induction"}]}, {"substance": "GQRDLFKDSAL [bovine counterpart of pep4, Komine et al]", "values": [{"measurement": "induction of pro-inflammatory cytokines and chemokines (TNF-α, IL-6, IL-8 and MCP-1)", "setting": "[1]", "result": "induced"}]}, {"substance": "Glu-Lys-Phe [EKF]", "values": [{"measurement": "IL-6 secretion, effect of peptide (Example 2, FIG. 4C)", "setting": "[2]", "result": "did not reproduce these effects"}, {"measurement": "IL-10 secretion, effect of peptide (Example 2, FIG. 4A)", "setting": "[3]", "result": "did not reproduce these effects"}, {"measurement": "TNF-α secretion, effect of peptide (Example 2, FIG. 4D)", "setting": "[4]", "result": "moderate inhibition"}, {"measurement": "TGF-β secretion, effect of peptide (Example 2, FIG. 4B)", "setting": "[5]", "result": "did not reproduce these effects"}]}, {"substance": "Phe-Lys-Glu (FKE)", "values": [{"measurement": "IL-6 secretion, effect of peptide", "setting": "[2]; [6]", "result": "No Increase"}, {"measurement": "IL-6 secretion, effect of peptide", "setting": "[2]; [7]", "result": "Increase (at"}, {"measurement": "IL-6 secretion, peptide concentration at which increase starts", "setting": "[2]; Non-stimulated, 48 hrs", "result": "at 0.1 μM)"}, {"measurement": "IL-6 secretion, effect of peptide", "setting": "[2]; [8]", "result": "Increase (starts"}, {"measurement": "IL-6 secretion, effect of peptide (Example 2, FIG. 4C)", "setting": "[2]", "result": "inhibits"}, {"measurement": "IL-10 secretion, effect of peptide", "setting": "[3]; [6]", "result": "increased"}, {"measurement": "IL-10 secretion, peptide concentration of maximal effect", "setting": "[3]; LPS-stimulated, 24 hrs", "result": 1, "unit": "µM"}, {"measurement": "IL-10 secretion, peptide concentration of maximal effect", "setting": "[3]; Non-stimulated, 24 hrs", "result": 10, "unit": "µM"}, {"measurement": "IL-10 secretion, peptide concentration of maximal effect", "setting": "[3]; Non-stimulated, 48 hrs", "result": 0.1, "unit": "µM"}, {"measurement": "IL-10 secretion, effect of peptide (Example 2, FIG. 4A)", "setting": "[3]", "result": "induces"}, {"measurement": "IL-10 secretion, effect of peptide (Example 1)", "setting": "[3]; [9]", "result": "induces"}, {"measurement": "TNF-α secretion, effect of peptide (Example 2, FIG. 4D)", "setting": "[4]", "result": "inhibits"}, {"measurement": "TGF-β secretion, peptide concentration of maximal effect", "setting": "[5]; LPS-stimulated, 24 hrs", "result": 100, "unit": "µM"}, {"measurement": "TGF-β secretion, effect of peptide", "setting": "[5]; Non-stimulated macrophages, 24 hrs incubation, peptide 0.1-1000 μM, significant if ±30% of control", "result": "No effect"}, {"measurement": "TGF-β secretion, peptide concentration of maximal effect", "setting": "[5]; Non-stimulated, 48 hrs", "result": 10, "unit": "µM"}, {"measurement": "TGF-β secretion, effect of peptide (Example 2, FIG. 4B)", "setting": "[5]", "result": "inhibits"}, {"measurement": "TGF-β secretion, effect of peptide (Example 1)", "setting": "[5]; [9]", "result": "inhibits"}]}, {"substance": "Tyr-Lys-Glu (YKE) [synthetic tripeptide, from the corresponding position in murine lactoferrin]", "values": [{"measurement": "IL-6 secretion, effect of peptide (Example 2, FIG. 4C)", "setting": "[2]", "result": "reproduced these effects"}, {"measurement": "IL-10 secretion, effect of peptide (Example 2, FIG. 4A)", "setting": "[3]", "result": "did not affect"}, {"measurement": "TNF-α secretion, effect of peptide (Example 2, FIG. 4D)", "setting": "[4]", "result": "better inhibition"}]}, {"substance": "phenylalanine-lysine-aspartic acid [FKD]", "values": [{"measurement": "IL-6 secretion, effect of peptide", "setting": "[2]; [6]", "result": "increased; also recorded: Increase (all conc.)"}, {"measurement": "IL-6 secretion, effect of peptide", "setting": "[2]; [7]", "result": "Increase (at"}, {"measurement": "IL-6 secretion, peptide concentration at which increase starts", "setting": "[2]; Non-stimulated, 48 hrs", "result": "at 0.1 μM)"}, {"measurement": "IL-6 secretion, effect of peptide", "setting": "[2]; [8]", "result": "Increase"}, {"measurement": "IL-6 secretion increase relative to FKE", "setting": "[2]; Non-stimulated, 48 hrs, fold of FKE", "result": 4, "unit": "fold"}, {"measurement": "IL-10 secretion, effect of peptide", "setting": "[3]; [6]", "result": "decreased; also recorded: Decrease (max at"}, {"measurement": "IL-10 secretion, peptide concentration of maximal effect", "setting": "[3]; LPS-stimulated, 24 hrs", "result": 100, "unit": "µM"}, {"measurement": "IL-10 secretion, effect of peptide", "setting": "[3]; Non-stimulated macrophages, 24 hrs incubation, peptide 0.1-1000 μM", "result": "Decrease (max at"}, {"measurement": "IL-10 secretion, peptide concentration of maximal effect", "setting": "[3]; Non-stimulated, 24 hrs", "result": 1, "unit": "µM"}, {"measurement": "IL-10 secretion, peptide concentration of maximal effect", "setting": "[3]; Non-stimulated, 48 hrs", "result": 1000, "unit": "µM"}, {"measurement": "TGF-β secretion, peptide concentration of maximal effect", "setting": "[5]; LPS-stimulated, 24 hrs", "result": 10, "unit": "µM"}, {"measurement": "TGF-β secretion, peptide concentration of maximal effect", "setting": "[5]; Non-stimulated, 24 hrs", "result": 1, "unit": "µM"}, {"measurement": "TGF-β secretion, peptide concentration of maximal effect", "setting": "[5]; Non-stimulated, 48 hrs", "result": 10, "unit": "µM"}]}]}
